The NIST ThermoML archive (doi:10.1021/acs.jced.8b00236)
Numbers after ± are expanded uncertainties.

Assay: mn = molality of the nth substance listed, in mol/kg
Details: 75 kPa, Liquid; for viscosity: Capillary tube (Ostwald / Ubbelohde) method; for speed of sound: Frequency=3 MHz, Single path-length method; for mass density: Vibrating tube method

NCCCCC(=O)O [5-aminovaleric acid] + O
Details | mass density [kg/m3] | speed of sound [m/s] | viscosity [mPa·s]
288.15 K, m1 = 0.1389 | 1003.29 ± 0.3 | 1481 ± 4 | 1.215 ± 0.025
288.15 K, m1 = 0.2789 | 1007.34 ± 0.3 | 1495.3 ± 4 | 1.293 ± 0.027
288.15 K, m1 = 0.4193 | 1011.22 ± 0.3 | 1509.3 ± 4 | 1.38 ± 0.029
288.15 K, m1 = 0.5604 | 1014.96 ± 0.3 | 1523 ± 4 | 1.473 ± 0.031
288.15 K, m1 = 0.7025 | 1018.54 ± 0.3 | 1536.5 ± 4 | 1.575 ± 0.033
288.15 K, m1 = 0.8448 | 1021.98 ± 0.31 | 1549.8 ± 4 | 1.685 ± 0.035
293.15 K, m1 = 0.1389 | 1002.34 ± 0.3 | 1496.8 ± 4 | 1.073 ± 0.022
293.15 K, m1 = 0.2789 | 1006.33 ± 0.3 | 1510.7 ± 4 | 1.135 ± 0.024
293.15 K, m1 = 0.4193 | 1010.16 ± 0.3 | 1524.2 ± 4 | 1.208 ± 0.025
293.15 K, m1 = 0.5604 | 1013.85 ± 0.3 | 1537.5 ± 4 | 1.289 ± 0.027
293.15 K, m1 = 0.7025 | 1017.4 ± 0.3 | 1550.4 ± 4 | 1.376 ± 0.029
293.15 K, m1 = 0.8448 | 1020.81 ± 0.31 | 1562.9 ± 4 | 1.477 ± 0.031
298.15 K, m1 = 0.1389 | 1001.15 ± 0.3 | 1510.3 ± 4 | 0.946 ± 0.02
298.15 K, m1 = 0.2789 | 1005.16 ± 0.3 | 1523.7 ± 4 | 1.003 ± 0.021
298.15 K, m1 = 0.4193 | 1009.06 ± 0.3 | 1536.7 ± 4 | 1.063 ± 0.022
298.15 K, m1 = 0.5604 | 1012.86 ± 0.3 | 1549.3 ± 4 | 1.143 ± 0.024
298.15 K, m1 = 0.7025 | 1016.56 ± 0.3 | 1561.6 ± 4 | 1.215 ± 0.025
298.15 K, m1 = 0.8448 | 1020.15 ± 0.31 | 1573.5 ± 4 | 1.301 ± 0.027
303.15 K, m1 = 0.1389 | 999.722 ± 0.3 | 1522.1 ± 4 | 0.853 ± 0.018
303.15 K, m1 = 0.2789 | 1003.72 ± 0.3 | 1534.9 ± 4 | 0.893 ± 0.019
303.15 K, m1 = 0.4193 | 1007.61 ± 0.3 | 1547.4 ± 4 | 0.95 ± 0.02
303.15 K, m1 = 0.5604 | 1011.41 ± 0.3 | 1559.5 ± 4 | 1.013 ± 0.021
303.15 K, m1 = 0.7025 | 1015.13 ± 0.3 | 1571.3 ± 4 | 1.077 ± 0.022
303.15 K, m1 = 0.8448 | 1018.76 ± 0.31 | 1582.7 ± 4 | 1.158 ± 0.024
308.15 K, m1 = 0.1389 | 998.079 ± 0.3 | 1532.3 ± 4 | 0.762 ± 0.016
308.15 K, m1 = 0.2789 | 1002.05 ± 0.3 | 1544.6 ± 4 | 0.8 ± 0.017
308.15 K, m1 = 0.4193 | 1005.91 ± 0.3 | 1556.5 ± 4 | 0.848 ± 0.018
308.15 K, m1 = 0.5604 | 1009.68 ± 0.3 | 1568.2 ± 4 | 0.9 ± 0.019
308.15 K, m1 = 0.7025 | 1013.37 ± 0.3 | 1579.4 ± 4 | 0.957 ± 0.02
308.15 K, m1 = 0.8448 | 1016.96 ± 0.31 | 1590.2 ± 4 | 1.019 ± 0.021
